Data taken from publication PMC12684298, “The Parkinson's Disease Drug Tolcapone and Analogues are Potent Glycomimetic Lectin Inhibitors of Pseudomonas aeruginosa LecA” (Angewandte Chemie (International Ed. in English), 2025).
Several values for one entry are separate records, joined by “and”; a condition that tells them apart may be missing. Identical values can stand only once. Like-named read-outs stand apart in the source and are kept apart here.

Legend:
[1] = molecular target: T1, LecA (Pseudomonas aeruginosa, UniProt Q05097); settings: previous hits; cited from earlier work
T1 construct: made in house; host or cells: E. coli BL21 (DE3), plasmid pET25pa11

[2] = molecular target: T1, LecA; test: biochemical; format: binding; settings: ITC
Description: Isothermal titration calorimetry was performed on a MicroCal PEAQ-ITC (Malvern Panalytical) at 25 °C and 750 rpm stirring. The cell was filled with LecA (75 - 111 µM) in TBS/Ca buffer (20 mM Tris, 147 mM NaCl, 2.6 mM KCl at pH 7.4 supplemented with 1 mM CaCl2) with 20% DMSO and titrated with ligand (0.75 mM or 1.5 mM, 19 injections) in the same buffer. Data were analysed using the one binding site model in the MicroCal PEAQ-ITC analysis software (Malvern Panalytical). The first injection of each titration was excluded and the baseline subtracted for the final figures. Three titration per compound were performed and the average as well as standard deviation are given.

[3] = molecular target: T1, LecA; test: Library screening using the FP competitive binding assay (three concentrations)
Description: Next, we screened a library of catechols from F. Hoffmann‐La Roche, the developer of Tolcapone, in the competitive binding assay to establish a structure–activity relationship. To this end, two sets of compounds with a molecular cut‐off of 500 Da were chosen: a first set of 342 compounds contained derivatives of Tolcapone, while a second set of 3222 compounds comprised catechols covering a larger chemical space. […] Tests were run in a 384‐well‐plate format at three concentrations (first set at 125, 32, and 4 µM, second set at 100, 25, and 3 µM) in presence of 10% DMSO and 250 µM 2‐mercaptoethanol to prevent interference by a potential unspecific reactivity of electron‐rich catechols as established earlier.^[ [30] ^]
The screening followed the same assay by Joachim et al.^[2] as described above. Compounds in DMSO (1 µL with the appropriate concentration) were plated using a robot into black 384-well microtiter plates (Greiner Bio-One, Germany, cat no 781900) by the Roche compound handling facility at four replicates per concentration and compound. A mixture of LecA, sulfo-Cy5-Gal and 2-mercaptoethanol in TBS/Ca (20 mM Tris, 147 mM NaCl, 2.6 mM KCl at pH 7.4 supplemented with 1 mM CaCl2) with DMSO was added at HIPS. Final concentrations in both screening rounds were the following: 5 µM LecA, 250 µM 2-mercaptoethanol, 10 nM sulfo-Cy5-Gal and 10% DMSO. Final concentrations of the 342 compounds of the first screening round were 125 µM, 32 µM and 4 µM. The 3222 compounds of the second screening round were tested at final concentrations of 100 µM, 25 µM and 3 µM. The plate was sealed (EASYseal, Greiner Bio-One, cat no 676001), briefly centrifuged and incubated at room temperature in the dark under shaking conditions. Fluorescence intensities were measured after 1 h and 24 h using a PheraStar FS plate reader (BMG Labtech GmbH, Germany) with spectral filters for excitation at 590 nm and emission at 675 nm and polarization was calculated after blank values of 5 µM LecA in TBS/Ca buffer with 250 µM 2-mercaptoethanol and 10% DMSO were subtracted from the test compounds. The data were analysed using the MARS Data Analysis software. […] All stated values are the average including the standard deviation based on three replicates for 100 µM and four replicates in the case of compounds at 125 µM.

[4] = molecular target: T1, LecA; test: biochemical; format: binding
Description: Therefore, we focused our attention on commercially available nitro‐catechols. Prominent derivatives are inhibitors of the enzyme catechol‐O‐methyltransferase (COMT) and approved drugs for the treatment of Parkinson's disease. Four commercial COMT inhibitors were thus evaluated in a previously reported competitive binding assay based on fluorescence polarisation (FP, Table 1, Figure 1).^[ [32] ^]
The competitive binding assay was performed in analogy to Joachim et al.^[2] 10 µL of a solution containing LecA (40 µM) and sulfo-Cy5-Gal (20 nM, synthesis described in Kuhaudomlarp, Siebs et al.^[5]) in TBS/Ca buffer (20 mM Tris, 147 mM NaCl, 2.6 mM KCl at pH 7.4 supplemented with 1 mM CaCl2) were distributed in into wells of a black 384-well microtiter plate (Greiner Bio-One, Germany, cat no 781900). Then, 10 µL of serial dilutions of compounds (3 mM to 1.5 µM, dilution factor 0.5) in TBS/Ca with 40% DMSO were added in technical triplicates. Final concentrations after mixing were the following: 1.5 mM – 0.73 µM compound, 20 µM LecA, 10 nM sulfo-Cy5-Gal and 20% DMSO. The plate was sealed (EASYseal, Greiner Bio-One, cat no 676001), briefly centrifuged and incubated at room temperature in the dark under shaking conditions. Fluorescence intensity was measured after 1 h and 4 h using a PheraStar FS plate reader (BMG Labtech GmbH, Germany) with spectral filters for excitation at 590 nm and emission at 675 nm and polarization was calculated after blank values of 20 µM LecA in TBS/Ca buffer with 20% DMSO were subtracted from the test compounds. The data were analysed using the four-parameter variable slope model of the MARS Data Analysis software. The top and bottom plateau were assigned based on the control compound methyl α-d-galactoside and the data was reanalysed with these fixed values. If not mentioned otherwise, the experiment was repeated at least three times for each compound and the average and standard deviation are given. In case Triton X-100 was used it was added to the TBS/Ca buffer before the assay.

[5] = molecular target: T1, LecA; test: Ligand-observed 19F NMR binding and competitive displacement with pNPGal; settings: for 19F NMR peak intensity [%]: 50 µM ligand
Description: The presence of two fluorine atoms in the high affinity ligand 33 enabled another orthogonal LecA binding experiment (Figure 5c). In analogy to Denavit et al.,^[ [34] ^] ligand‐observed ^19F NMR spectra of 50 µM 33 were recorded in absence and in presence of LecA (100 µM). […] Importantly, the ligand's fluorine signal was restored when pNPGal was added as competitor molecule, indicating the specific and reversible catechol – LecA interaction.
RO0412970 was mixed with trifluoroacetic acid (TFA) as internal standard in non-deuterated TBS/Ca (20 mM Tris, 147 mM NaCl, 2.6 mM KCl at pH 7.4 supplemented with 1 mM CaCl2) and 10% DMSO-d6. From this mixture, one sample with LecA and one without LecA (as control) were prepared. […] Directly after the addition, spectra of both samples were recorded and the data was analysed with MestReNova 14.2.0. The spectra were referenced to TFA (-75.6 ppm) and the peak intensity of RO412970 compared to the internal standard TFA was calculated.

[6] = individual replicate (Repl. 1-3)
[7] = read-out: Activity [%] (% inhibition relative to 500 µM pNPGal)
[8] = IC50, extended dose-response analysis, 20% DMSO, no 2-mercaptoethanol, three experiments
[9] = KD, 25 °C, 20% DMSO, average of three titrations
[10] = KD, individual replicate (Repl. 1-3)
[11] = IC50 in presence of 0.01% Triton X-100, FP assay, 0.01% Triton X-100, one replicate
[12] = IC50 in presence of 0.057% Triton X-100, FP assay, 0.057% Triton X-100, one replicate

T1 sequence (Q05097 whole entry): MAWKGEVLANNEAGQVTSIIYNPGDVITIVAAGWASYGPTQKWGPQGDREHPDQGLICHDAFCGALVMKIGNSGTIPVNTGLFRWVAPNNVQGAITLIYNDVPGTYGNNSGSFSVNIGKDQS

O=C(c1ccccc1)c1ccc(O)c(O)c1 [3,4‐dihydroxybenzophenone]
Kd [1]: 3460 ± 410 µM

O=[N+]([O-])c1ccc(O[C@@H]2O[C@H](CO)[C@H](O)[C@H](O)[C@H]2O)cc1 [pNPGal, para‐nitrophenyl β‐D‐galactoside, reference compound]
Kd ([2]; 25 °C, 20% DMSO, average of three titrations, read-out: KD): 10.1 µM
N (sites) ([2]; average of three titrations): 0.81 ± 0.09 and 0.810
ΔG ([2]; average of three titrations): -28.6 ± 0.3 kJ/mol and -28.6 kJ/mol
-TΔS [2, 6]: 24.4 kJ/mol and 19.4 kJ/mol and 21.0 kJ/mol
N (sites) [2, 6]: 0.722 and 0.801 and 0.908
ΔG [2, 6]: -28.4 kJ/mol (2×) and -28.9 kJ/mol
ΔH [2, 6]: -52.7 kJ/mol and -48.3 kJ/mol and -49.4 kJ/mol
Kd ([2]; individual replicate (Repl. 1-3), read-out: KD): 10.8 µM (2×) and 8.8 µM

COc1cc(C(=O)c2ccc(C)cc2)cc([N+](=O)[O-])c1OC [compound 5]
Activity [%] (% inhibition relative to 500 µM pNPGal) ([3]; compound 125 µM (marked *), 10% DMSO, 250 µM 2-mercaptoethanol, four replicates): complete lack of activity
inhibition at 125 µM [3, 7]: -5.3 ± 7.6%

O=C(c1cc(O)c(O)c([N+](=O)[O-])c1)N1CCCCC1 [compound 25]
inhibition at 100 µM [3, 7]: 5 ± 11.8%

Cc1ccc(C(=O)c2cc(O)c(O)c(-c3nnn[nH]3)c2)cc1 [compound 14]
inhibition at 100 µM [3, 7]: 0.8 ± 8.7%

CC(=O)Nc1cc(C(=O)c2ccc(C)cc2)cc(O)c1O [compound 10]
inhibition at 100 µM [3, 7]: 20.1 ± 2.8%

Cc1ccc(C(=O)c2cc(O)c(O)c(O)c2)cc1 [compound 7]
inhibition at 100 µM [3, 7]: 7.5 ± 4.9%

Cc1ccc(C(=O)c2cc(O)c(O)c(C#N)c2)cc1 [compound 12]
inhibition at 100 µM [3, 7]: 20.2 ± 4.8%

O=C(Nc1ccc(F)cc1)c1cc(O)c(O)c([N+](=O)[O-])c1 [compound 22]
inhibition at 100 µM [3, 7]: 8.7 ± 3.3%

O=C(c1cc(O)c(O)c([N+](=O)[O-])c1)c1nc2ccccc2[nH]1 [compound 28]
inhibition at 100 µM [3, 7]: 26.7 ± 3.6%

CC(=O)c1cc(O)c(O)c([N+](=O)[O-])c1 [compound 19]
inhibition at 100 µM [3, 7]: 31.5 ± 3.8%

Cc1noc(-c2cc(O)c(O)c([N+](=O)[O-])c2)n1 [compound 16]
inhibition at 100 µM [3, 7]: 9.4 ± 7.5%

Cn1nc(-c2cc(O)c(O)c([N+](=O)[O-])c2)cc1O [compound 18]
inhibition at 100 µM [3, 7]: 1.9 ± 3.3%

Cc1ccc(C(=O)c2cc(N)c(O)c(O)c2)cc1 [compound 8]
inhibition at 100 µM [3, 7]: 7.9 ± 3.4%

Nc1cc(Cl)ccc1-c1nc(-c2cc(O)c(O)c([N+](=O)[O-])c2)cs1 [compound 17]
inhibition at 100 µM [3, 7]: 15.2 ± 8.7%

CCCCOC(=O)c1cc(O)c(O)c([N+](=O)[O-])c1 [compound 21]
inhibition at 100 µM [3, 7]: 22.9 ± 1.8%

Cc1ccc(C(=O)c2ccc(O)c(O)c2)cc1 [compound 6]
inhibition at 100 µM [3, 7]: 13.8 ± 3.9%

O=C(c1cc(O)c(O)c([N+](=O)[O-])c1)C1CCCCC1 [compound 27]
inhibition at 100 µM [3, 7]: 23.4 ± 3.6%

Cc1ccc(C(=O)c2cc(O)c(O)c(-c3nc(C)no3)c2)cc1 [compound 13]
IC50 [4, 8]: 346 ± 36 µM
inhibition at 100 µM [3, 7]: 57.7 ± 3.8%

Cc1ccc(C(=O)c2cc([N+](=O)[O-])c(O)c(O)c2Cl)cc1 [compound 15]
N (sites) ([2]; average of three titrations): 0.92 ± 0.05 and 0.922
ΔG ([2]; average of three titrations): -28.2 ± 0.6 kJ/mol and -28.2 kJ/mol
ΔH ([2]; average of three titrations): -22.8 ± 1.5 kJ/mol and -22.8 kJ/mol
-TΔS [2, 6]: -3.5 kJ/mol and -7.7 kJ/mol and -5.1 kJ/mol
N (sites) [2, 6]: 0.947 and 0.957 and 0.862
ΔG [2, 6]: -27.6 kJ/mol and -28.8 kJ/mol and -28.2 kJ/mol
ΔH [2, 6]: -24.1 kJ/mol and -21.1 kJ/mol and -23.1 kJ/mol
Kd [2, 9]: 12 µM
Kd [2, 10]: 15.1 µM and 9.3 µM and 11.5 µM
IC50 [4, 8]: 58 µM
IC50 [4, 11]: 67 µM
IC50 [4, 12]: 56 µM
inhibition at 100 µM [3, 7]: 96.7 ± 4%

Cc1ccc(C(=O)c2cc(O)c(O)c(C(=O)O)c2)cc1 [compound 9]
inhibition at 100 µM [3, 7]: 2.1 ± 2.9%

CCOC(=O)c1cc(O)c(O)c([N+](=O)[O-])c1 [compound 20]
inhibition at 100 µM [3, 7]: 14 ± 4.2%

O=C(c1cc(O)c(O)c([N+](=O)[O-])c1)c1c(F)cccc1F [compound 33]
19F NMR peak intensity [%] ([5]; 100 µM LecA, after pNPGal (1 mM)): 79%
19F NMR peak intensity [%] ([5]; 100 µM LecA, before pNPGal): 1%
19F NMR peak intensity [%] ([5]; no LecA, after pNPGal (1 mM), defined as 100%): 100%
19F NMR peak intensity [%] ([5]; no LecA, before pNPGal, relative to TFA standard): 106%
19F NMR intensity ratio catechol/TFA ([5]; LecA, after pNPGal): 0.2160
19F NMR intensity ratio catechol/TFA ([5]; LecA, before pNPGal): 0.0036
19F NMR intensity ratio catechol/TFA ([5]; no LecA, after pNPGal): 0.2752
19F NMR intensity ratio catechol/TFA ([5]; no LecA, before pNPGal): 0.2923
N (sites) ([2]; average of three titrations): 0.82 ± 0.03 and 0.820
ΔG ([2]; average of three titrations): -27.6 ± 0.4 kJ/mol and -27.6 kJ/mol
ΔH ([2]; average of three titrations): -24.4 ± 2.2 kJ/mol and -24.4 kJ/mol
-TΔS [2, 6]: -5.7 kJ/mol and -3.3 kJ/mol and -0.7 kJ/mol
N (sites) [2, 6]: 0.846 and 0.788 and 0.827
ΔG [2, 6]: -27.9 kJ/mol and -27.7 kJ/mol and -27.2 kJ/mol
ΔH [2, 6]: -22.2 kJ/mol and -24.4 kJ/mol and -26.5 kJ/mol
Kd [2, 9]: 15 µM
Kd [2, 10]: 13.2 µM and 14.4 µM and 17.3 µM
IC50 [4, 8]: 94 µM
IC50 [4, 11]: 81 µM
IC50 [4, 12]: 91 µM

O=C(c1ccccc1)c1cc(O)c(O)c([N+](=O)[O-])c1 [compound 29]
inhibition at 100 µM [3, 7]: 41.8 ± 7.3%
